ChEMBL document CHEMBL1201862, “PubChem BioAssay data set” (2004)
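Five compound concentrations were applied to cells in 96-well plates for 48 hours; endpoints were derived by simple linear interpolation of the resulting dose-response curve. Abbreviation: GI50, concentration required for 50% inhibition of growth.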 Calls of active or inactive are those of the source. No stated cut-off is given here; in the data, active = GI50 up to about 1.1 µM and inactive = higher.

Tests used:
Test in all cases: inhibition of tumour cell growth, NCI panel, 48 h
[1] = system: RXF 393
[2] = system: NCI-H226
[3] = system: U-251
[4] = system: HT-29
[5] = system: HCC 2998
[6] = system: SR
[7] = system: Malme-3M
[8] = system: SF-268
[9] = system: EKVX
[10] = system: PC-3
[11] = system: HCT-116
[12] = system: OVCAR-8
[13] = system: HL-60
[14] = system: UO-31
[15] = system: COLO 205
[16] = system: MOLT-4

Measured: GI50

O=C1Nc2nnc(S)n2NC12c1ccccc1-c1ccccc12
inactive: [1] > 100 µM | [2] > 100 µM | [3] > 100 µM | [4] > 100 µM | [5] > 100 µM | [6] 33 µM | [7] > 100 µM | [8] 65.2 µM | [9] > 100 µM | [10] > 100 µM | [11] 24.2 µM | [12] > 100 µM | [13] > 100 µM | [14] > 100 µM | [15] > 100 µM

CC(=O)Oc1ccc(/C=C/C(=O)NCCOC(=O)/C=C/c2ccc(OC(C)=O)c(OC(C)=O)c2)cc1OC(C)=O
inactive: [1] 11.7 µM | [3] 28.4 µM | [4] 25.6 µM | [5] 34.3 µM | [6] 14.1 µM | [7] 28.5 µM | [8] 20 µM | [16] 4.8 µM | [9] 34.7 µM | [10] 34 µM | [11] 14.5 µM | [12] 25.2 µM | [14] 22.9 µM | [15] 42.5 µM

Cc1cn(C2CC(ON3C(=O)c4ccccc4C3=O)C(CO)O2)c(=O)[nH]c1=O (stereo unspecified)
inactive: [1] > 10 µM | [2] > 10 µM | [3] > 10 µM | [4] > 10 µM | [5] > 10 µM | [6] > 10 µM | [7] > 10 µM | [8] > 10 µM | [16] > 10 µM | [9] > 10 µM | [10] > 10 µM | [11] > 10 µM | [12] > 10 µM | [13] > 10 µM | [14] > 10 µM

CC(=O)OCC1OC(N2C(=O)CC(N)=Nc3ccccc32)C(OC(C)=O)C(OC(C)=O)C1OC(C)=O (stereo unspecified)
inactive: [1] 23.1 µM | [3] 59.7 µM | [4] 53.8 µM | [5] 75.7 µM | [6] 41 µM | [7] 28.9 µM | [8] 45.4 µM | [16] 16.7 µM | [9] 83.2 µM | [10] 42.6 µM | [11] 81.8 µM | [12] 32.4 µM | [13] 67.3 µM | [14] > 100 µM | [15] 15.1 µM

Cn1c(=O)c2nc(Nc3ccccc3)[nH]c2n(C)c1=O
inactive: [1] > 10 µM | [4] > 10 µM | [5] > 10 µM | [6] > 10 µM | [7] > 10 µM | [8] > 10 µM | [16] > 10 µM | [9] > 10 µM | [10] > 10 µM | [12] > 10 µM | [13] > 10 µM | [15] > 10 µM

COC(=O)CCC1(O)C=CC(=O)C=C1
inactive: [1] 23.6 µM | [2] > 100 µM | [3] 21.1 µM | [4] 36.7 µM | [5] 63.5 µM | [6] 25 µM | [7] 17 µM | [8] 29.6 µM | [16] 37.7 µM | [9] > 100 µM | [10] > 100 µM | [11] 34 µM | [12] 31.7 µM | [14] 55 µM | [15] 17.6 µM

CCC(=O)C(C(C)/C=C/CCSc1ccccc1)C(O)CCCCCC(=O)OC (stereo unspecified)
inactive: [1] > 100 µM | [2] > 100 µM | [3] 77.8 µM | [4] > 100 µM | [5] > 100 µM | [6] 32.9 µM | [7] > 100 µM | [8] > 100 µM | [16] 27.1 µM | [9] > 100 µM | [10] 84.1 µM | [11] > 100 µM | [12] > 100 µM | [14] > 100 µM | [15] > 100 µM

N=C(N)C1CN(CC=O)C(=O)NC1=O (stereo unspecified)
inactive: [2] > 100 µM | [3] > 100 µM | [4] > 100 µM | [5] > 100 µM | [6] > 100 µM | [7] > 100 µM | [8] > 100 µM | [16] > 100 µM | [9] > 100 µM | [10] > 100 µM | [11] > 100 µM | [12] > 100 µM | [13] > 100 µM | [14] > 100 µM | [15] > 100 µM

CCOC(=O)NC(C(F)(F)F)(C(F)(F)F)P(=O)(OCC)OCC
inactive: [1] 11.9 µM | [2] 54.1 µM | [3] 23.3 µM | [4] 27.5 µM | [5] 75.2 µM | [6] > 10 µM | [7] 28.3 µM | [8] 42.6 µM | [16] 4.11 µM | [10] 22.8 µM | [11] 31 µM | [12] 36.6 µM | [13] 65.2 µM | [14] 24.3 µM | [15] 38.6 µM
